From PubChem BioAssay AID248 (DTP/NCI, 2004)
Values joined by “and” are separate entries in the source; they are usually repeats but may differ in a detail not shown here. Equal entries are not always repeated. Inconclusive results and toxic doses are left out. No stated cut-off is given here; in the data, active means T/C of 150% or more; inactive means T/C below 125%.

System: L1210 leukemia ip in BDF1 mice, survival T/C
Test: NCI In Vivo Anticancer Drug Screen. Data for tumor model L1210 Leukemia (intraperitoneal) in B6D2F1 (BDF1) mice
Conditions: endpoint: mean survival time, higher = longer survival
How it was run: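 Value reflects the ratio of survival in compound-treated mice to survival in vehicle-treated controls, with both groups carrying the same transplanted tumor.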

[1] = dose: 100.0 mg/kg/injection, schedule: Q01DX001 (ip), vehicle: saline
[2] = dose: 200.0 mg/kg/injection, schedule: Q01DX001 (ip), vehicle: saline
[3] = dose: 400.0 mg/kg/injection, schedule: Q01DX001 (ip), vehicle: saline
[4] = dose: 100.0 mg/kg/injection, schedule: Q04DX003 (ip), vehicle: saline with Tween-80
[5] = dose: 200.0 mg/kg/injection, schedule: Q04DX003 (ip), vehicle: saline with Tween-80
[6] = dose: 400.0 mg/kg/injection, schedule: Q04DX003 (ip), vehicle: saline with Tween-80
[7] = dose: 100.0 mg/kg/injection, schedule: Q01DX009 (ip), vehicle: saline with Tween-80
[8] = dose: 200.0 mg/kg/injection, schedule: Q01DX009 (ip), vehicle: saline with Tween-80
[9] = dose: 100.0 mg/kg/injection, schedule: Q01DX001 (ip), vehicle: other
[10] = dose: 200.0 mg/kg/injection, schedule: Q01DX001 (ip), vehicle: other
[11] = dose: 100.0 mg/kg/injection, schedule: Q04DX002 (ip), vehicle: Klucel (hydroxypropylcellulose) (HPC)
[12] = dose: 200.0 mg/kg/injection, schedule: Q04DX002 (ip), vehicle: Klucel (hydroxypropylcellulose) (HPC)
[13] = dose: 400.0 mg/kg/injection, schedule: Q04DX002 (ip), vehicle: Klucel (hydroxypropylcellulose) (HPC)
[14] = dose: 50.0 mg/kg/injection, schedule: Q01DX001 (ip), vehicle: Klucel (hydroxypropylcellulose) (HPC)
[15] = dose: 100.0 mg/kg/injection, schedule: Q01DX001 (ip), vehicle: Klucel (hydroxypropylcellulose) (HPC)
[16] = dose: 400.0 mg/kg/injection, schedule: Q01DX009 (ip), vehicle: saline with Tween-80
[17] = dose: 100.0 mg/kg/injection, schedule: Q04DX002 (ip), vehicle: saline with Tween-80
[18] = dose: 200.0 mg/kg/injection, schedule: Q04DX002 (ip), vehicle: saline with Tween-80
[19] = dose: 400.0 mg/kg/injection, schedule: Q04DX002 (ip), vehicle: saline with Tween-80
[20] = dose: 200.0 mg/kg/injection, schedule: Q01DX001 (ip), vehicle: Klucel (hydroxypropylcellulose) (HPC)

Measured: T/C

Nc1[nH]c(=S)[nH]c(=O)c1N
inactive: dose: 12.0 mg/kg/injection, schedule: Q01DX009 (ip), vehicle: other 102 % of control | dose: 12.0 mg/kg/injection, schedule: Q04DX003 (ip), vehicle: saline 97 % of control | dose: 25.0 mg/kg/injection, schedule: Q01DX009 (ip), vehicle: other 102 % of control | dose: 25.0 mg/kg/injection, schedule: Q04DX003 (ip), vehicle: saline 104 % of control | dose: 50.0 mg/kg/injection, schedule: Q01DX009 (ip), vehicle: other 105 % of control | dose: 50.0 mg/kg/injection, schedule: Q04DX003 (ip), vehicle: saline 118 % of control | dose: 125.0 mg/kg/injection, schedule: Q01DX Z (ip), vehicle: methylcellulose (MC) 106 % of control | dose: 250.0 mg/kg/injection, schedule: Q01DX Z (ip), vehicle: methylcellulose (MC) 117 % of control

O=[N+]([O-])c1ccc(Oc2ccc(Br)cc2)cc1
inactive: dose: 100.0 mg/kg/injection, schedule: Q04DX003 (ip), vehicle: Klucel (hydroxypropylcellulose) (HPC) 104 % of control | dose: 200.0 mg/kg/injection, schedule: Q04DX003 (ip), vehicle: Klucel (hydroxypropylcellulose) (HPC) 104 % of control | dose: 400.0 mg/kg/injection, schedule: Q04DX003 (ip), vehicle: Klucel (hydroxypropylcellulose) (HPC) 93 % of control

CCc1nc2c(OC)ccc(OC)c2nc1C
inactive: dose: 75.0 mg/kg/injection, schedule: Q01DX001 (ip), vehicle: other 96 % of control | dose: 150.0 mg/kg/injection, schedule: Q01DX001 (ip), vehicle: other 96 % of control

CCOC(=O)c1ccc(N=Cc2cc(Cl)cc(Cl)c2O)cc1
inactive: [1] 95 % of control | [2] 100 % of control | [3] 93 % of control

C1CN(CCN2CCOCC2)CCO1
inactive: dose: 100.0 mg/kg/injection, schedule: Q01DX009 (ip), vehicle: saline 100 % of control | dose: 200.0 mg/kg/injection, schedule: Q01DX009 (ip), vehicle: saline 93 % of control | dose: 400.0 mg/kg/injection, schedule: Q01DX009 (ip), vehicle: saline 96 % of control

CC(=O)Nc1ccc(/C=C/c2cc[n+](C)cc2)cc1
inactive: [4] 97 % of control | [5] 111 % of control | [6] 102 % of control

COc1cc2c(cc1OC(C)=O)C(=O)C(Br)CCC2 (centres undefined)
inactive: dose: 50.0 mg/kg/injection, schedule: Q01DX009 (ip), vehicle: saline with Tween-80 90 % of control | [7] 101 % of control | [8] 93 % of control

OC1CCCCC1[n+]1ccccc1 (centres undefined) (tested in a mixture with another compound)
inactive: [1] 103 % of control | [2] 88 % of control | [3] 101 % of control

CCCCCCCCCC(=O)N/N=C/c1cccnc1
inactive: dose: 100.0 mg/kg/injection, schedule: Q01DX009 (ip), vehicle: other 96 % of control | dose: 200.0 mg/kg/injection, schedule: Q01DX009 (ip), vehicle: other 86 % of control | dose: 400.0 mg/kg/injection, schedule: Q01DX009 (ip), vehicle: other 86 % of control

O=CC1=C(Cl)c2ccccc2SC1
inactive: [9] 93 % of control | [10] 98 % of control

CN(C)N=Nc1ccc(C(=O)OC2CCC3C4CCC5=CC(=O)CCC5(C)C4CCC23C)cc1 (centres undefined)
inactive: dose: 10.0 mg/kg/injection, schedule: Q01DX009 (ip), vehicle: Klucel (hydroxypropylcellulose) (HPC) 96 % of control | [11] 94 % of control | dose: 200.0 mg/kg/injection, schedule: Q01DX009 (ip), vehicle: Klucel (hydroxypropylcellulose) (HPC) 102 % of control | [12] 102 % of control | dose: 400.0 mg/kg/injection, schedule: Q01DX009 (ip), vehicle: Klucel (hydroxypropylcellulose) (HPC) 97 % of control | [13] 91 % of control

C=CCCc1c(N)nc(N)[nH]c1=O
inactive: dose: 25.0 mg/kg/injection, schedule: Q01DX001 (ip), vehicle: Klucel (hydroxypropylcellulose) (HPC) 100 % of control | [14] 100 % of control | [15] 96 % of control

O=C(O)c1cccc2c1C(=O)c1c(Cl)cccc1C2=O
inactive: [11] 99 % of control | [12] 99 % of control | [13] 99 % of control

Cc1cnc(C#N)c(Cl)n1
inactive: [7] 95 % of control | [4] 92 % of control | [8] 101 % of control | [5] 98 % of control | [16] 88 % of control | [6] 97 % of control

C/C=C\c1ccc(OCCOC(C)=O)c(OC)c1
inactive: [17] 97 % of control | [18] 97 % of control | [19] 93 % of control

Fc1cccc2ccccc12
inactive: [7] 105 % of control | [8] 87 % of control

Cc1c(Cl)cccc1NC(=S)Nc1ccccc1
inactive: [11] 100 % of control | [12] 95 % of control | [13] 95 % of control

CCCC(=O)Nc1cc(C)ccc1OC
inactive: dose: 100.0 mg/kg/injection, schedule: Q01DX001 (ip), vehicle: saline with Tween-80 94 % of control | [7] 101 % of control and 90 % of control | [17] 103 % of control and 92 % of control | dose: 200.0 mg/kg/injection, schedule: Q01DX001 (ip), vehicle: saline with Tween-80 98 % of control | [8] 101 % of control and 106 % of control | [18] 97 % of control and 92 % of control | dose: 400.0 mg/kg/injection, schedule: Q01DX001 (ip), vehicle: saline with Tween-80 94 % of control | [16] 97 % of control and 87 % of control | [19] 95 % of control and 98 % of control

Oc1cccc(NC(=S)Nc2ccccc2)c1
inactive: dose: 50.0 mg/kg/injection, schedule: Q01DX001 (ip), vehicle: saline 100 % of control | [1] 94 % of control | [2] 97 % of control | [3] 97 % of control

Cc1nc(N)[nH]c(=O)c1CCCS
inactive: [1] 104 % of control | [2] 101 % of control | [3] 102 % of control

C[n+]1c(I)ccc2ccccc21
inactive: [9] 105 % of control | [10] 105 % of control | dose: 400.0 mg/kg/injection, schedule: Q01DX001 (ip), vehicle: other 110 % of control

O=CC1c2ccccc2C(C=O)c2c1ccc1ccccc21 (centres undefined)
inactive: [14] 93 % of control | [15] 91 % of control | [20] 100 % of control

O=C1C=C(c2ccccc2)C(=O)c2ccccc21
inactive: [15] 106 % of control | [20] 101 % of control | dose: 400.0 mg/kg/injection, schedule: Q01DX001 (ip), vehicle: Klucel (hydroxypropylcellulose) (HPC) 105 % of control
